Our source for the EC50, AC50 and IC50 values is ChEMBL document CHEMBL1201862, “PubChem BioAssay data set” (2004).

Calls of active or inactive are those of the source.

A short description of test [1]: inhibitors of firefly luciferase expression or activity, dose response, H4 neuroglioma cells, luminescence (AID 1990). It counts as functional, cell-based.
Test [2] is described as follows: Luminescence Cell-Based Dose Response HTS to Identify Inhibitors of 5'UTR Stem-Loop Driven Prion Protein mRNA Translation in H4 Neuroglioblastoma Cells. [Related pubchem assays: 1827 (Project Summary), 1813 (Primary HTS)]. It counts as functional.
A short description of test [3]: inhibitors of SNCA 5'UTR-driven reporter translation, confirmation, H4 neuroglioma cells, luminescence (AID 1988). Type of test: functional, cell-based.
In test [4] the test system is Escherichia coli. Put plainly: microbe, parasite or virus in culture.
For the next test, the target named is T1, Bcl-2-related protein A1 (Mus musculus, UniProt Q07440).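 Note: confirmatory dose–response counterscreen on Bfl-1, used to check hits from a UBC13 polyubiquitin inhibitor campaign.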
T1 sequence (Q07440 whole entry): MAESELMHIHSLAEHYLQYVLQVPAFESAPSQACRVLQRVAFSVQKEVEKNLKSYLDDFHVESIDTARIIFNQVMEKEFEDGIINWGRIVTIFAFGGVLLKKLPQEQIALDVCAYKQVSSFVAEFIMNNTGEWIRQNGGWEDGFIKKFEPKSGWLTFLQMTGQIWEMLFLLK
It counts as functional.

The target in test [5] is T2, Ubiquitin-conjugating enzyme E2 N (Homo sapiens, UniProt P61088).
T2 sequence (P61088 whole entry): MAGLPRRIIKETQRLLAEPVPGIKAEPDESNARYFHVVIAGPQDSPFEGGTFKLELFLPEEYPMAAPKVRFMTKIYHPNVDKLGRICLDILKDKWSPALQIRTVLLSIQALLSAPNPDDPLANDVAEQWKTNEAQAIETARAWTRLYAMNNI
Type of test: functional.

For test [6], the target named is T2, Ubiquitin-conjugating enzyme E2 N. Type of test: functional. This is another data set of the same source.
Test [7] concerns Escherichia coli. Put plainly: microbe, parasite or virus in culture. The source holds these as a separate data set.
Test [8] has as its target T3, Endoribonuclease toxin MazF (Escherichia coli K-12, UniProt P0AE70).
T3 sequence (P0AE70 whole entry): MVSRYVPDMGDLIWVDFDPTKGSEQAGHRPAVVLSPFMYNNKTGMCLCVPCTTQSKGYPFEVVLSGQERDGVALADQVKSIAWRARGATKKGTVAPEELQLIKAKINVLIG
Put plainly: MazF toxin RNase activators, dose response, biochemical, fluorescence, single-stranded RNA substrate, uHTS hits (AID 588481). Type of test: functional.

The target in test [9] is T3, Endoribonuclease toxin MazF. Put plainly: fluorescent RNA oligo signal without MazF, dose response, counter-screen for MazEF activator project, biochemical, fluorescence, single-stranded RNase substrate (AID 588502). Type of test: functional.
Test [10] can be described thus: NIH-3T3 fibroblast cytotoxicity, dose response, cytotoxicity control, cell-based, fluorescence, Alamar Blue, secondary assay (AID 2327).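 Note: NIH-3T3 mouse fibroblasts cultured with fluconazole at 8 µg/mL.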 Type of test: functional.
The nature of test [11]: C. albicans growth with fluconazole, confirmation, fluorescence, retest (AID 2467). Type of test: functional, cell-based.
Test [12] addresses T4, Serine/threonine-protein phosphatase (Candida dubliniensis (strain CD36 / CBS 7987 / NCPF 3949 / NRRLY-17841) (Yeast), UniProt B9W6M3).
T4 sequence (B9W6M3 whole entry): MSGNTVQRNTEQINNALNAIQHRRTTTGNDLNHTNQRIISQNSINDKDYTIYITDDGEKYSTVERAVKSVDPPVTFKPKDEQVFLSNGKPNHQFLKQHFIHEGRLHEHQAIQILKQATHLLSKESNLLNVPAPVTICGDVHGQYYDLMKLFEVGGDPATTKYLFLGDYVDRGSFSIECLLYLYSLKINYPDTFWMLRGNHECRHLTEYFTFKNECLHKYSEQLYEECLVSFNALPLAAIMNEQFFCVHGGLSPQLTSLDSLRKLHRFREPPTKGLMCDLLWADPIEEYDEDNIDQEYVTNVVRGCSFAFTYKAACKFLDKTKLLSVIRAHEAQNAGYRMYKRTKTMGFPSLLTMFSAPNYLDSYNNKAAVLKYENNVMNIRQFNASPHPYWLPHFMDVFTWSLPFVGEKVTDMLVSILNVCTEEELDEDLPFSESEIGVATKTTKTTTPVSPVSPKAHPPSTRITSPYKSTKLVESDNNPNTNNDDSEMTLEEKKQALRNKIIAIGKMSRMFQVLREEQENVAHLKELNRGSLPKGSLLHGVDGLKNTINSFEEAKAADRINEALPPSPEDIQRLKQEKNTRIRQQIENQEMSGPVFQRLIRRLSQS
Put plainly: calcineurin pathway inhibitors in yeast reporter, dose response, S. cerevisiae, CDRE-lacZ, luminescence, secondary (AID 2388).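 Note: yeast reporter cells carrying a calcineurin-responsive lacZ construct stimulated with calcium chloride; luminescent beta-galactosidase reporter signal in whole cells rather than isolated phosphatase activity; potency for inhibition where a drop in reporter signal means calcineurin blockade.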 Type of test: functional, cell-based.

Test [13] addresses ATP-dependent molecular chaperone HSP82 (Candida albicans (strain WO-1) (Yeast), UniProt C4YTQ8). Put plainly: loss of DOC-induced GRE-beta-galactosidase reporter signal, dose response, Hsp90 inhibitor project, S. cerevisiae, luminescence (AID 2400).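 Note: beta-galactosidase luminescence from glucocorticoid response element reporter as proxy for Hsp90 function; inhibitor potency where signal loss means Hsp90 inhibition.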 It counts as functional, cell-based.
Test [14] addresses Glyceraldehyde-3-phosphate dehydrogenase (Homo sapiens, UniProt P04406).
Test [15] deals with Alkaline phosphatase, placental type (Homo sapiens, UniProt P05187). Put plainly: PLAP enzyme inhibitors, confirmation, biochemical, luminescence (AID 1512). It counts as functional.
Chain of Alkaline phosphatase, placental type (P05187 whole entry): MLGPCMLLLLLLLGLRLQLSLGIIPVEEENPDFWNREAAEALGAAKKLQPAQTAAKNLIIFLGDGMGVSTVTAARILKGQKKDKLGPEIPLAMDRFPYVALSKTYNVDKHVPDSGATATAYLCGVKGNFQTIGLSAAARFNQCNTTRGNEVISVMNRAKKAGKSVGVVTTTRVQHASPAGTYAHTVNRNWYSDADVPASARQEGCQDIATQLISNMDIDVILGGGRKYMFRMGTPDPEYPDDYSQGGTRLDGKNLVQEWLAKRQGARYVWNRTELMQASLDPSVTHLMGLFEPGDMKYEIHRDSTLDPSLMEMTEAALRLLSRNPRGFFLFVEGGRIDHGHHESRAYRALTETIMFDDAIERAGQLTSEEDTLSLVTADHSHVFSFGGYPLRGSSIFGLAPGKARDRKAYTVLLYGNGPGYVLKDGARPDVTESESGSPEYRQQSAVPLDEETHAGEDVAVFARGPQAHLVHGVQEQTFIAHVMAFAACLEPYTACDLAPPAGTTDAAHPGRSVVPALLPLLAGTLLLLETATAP

Chain of ATP-dependent molecular chaperone HSP82 (C4YTQ8 whole entry): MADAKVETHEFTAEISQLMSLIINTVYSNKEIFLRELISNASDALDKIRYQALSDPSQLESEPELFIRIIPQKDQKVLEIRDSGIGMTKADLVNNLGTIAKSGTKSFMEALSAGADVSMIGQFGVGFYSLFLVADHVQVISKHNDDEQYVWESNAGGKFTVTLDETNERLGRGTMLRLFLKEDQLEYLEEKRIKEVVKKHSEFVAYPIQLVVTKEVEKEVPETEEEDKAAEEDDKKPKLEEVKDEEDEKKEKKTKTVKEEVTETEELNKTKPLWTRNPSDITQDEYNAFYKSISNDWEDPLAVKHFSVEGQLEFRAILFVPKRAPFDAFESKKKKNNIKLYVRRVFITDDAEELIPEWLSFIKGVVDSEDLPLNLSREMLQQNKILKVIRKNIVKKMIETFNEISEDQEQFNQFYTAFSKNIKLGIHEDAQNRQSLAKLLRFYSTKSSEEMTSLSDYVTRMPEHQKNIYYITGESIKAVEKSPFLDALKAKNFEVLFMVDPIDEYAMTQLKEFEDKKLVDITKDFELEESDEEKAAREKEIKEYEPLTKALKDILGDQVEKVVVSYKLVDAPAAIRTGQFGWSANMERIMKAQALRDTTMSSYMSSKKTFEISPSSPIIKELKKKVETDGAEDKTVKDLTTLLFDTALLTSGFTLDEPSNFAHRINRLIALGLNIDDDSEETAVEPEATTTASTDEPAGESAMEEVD
Chain of Glyceraldehyde-3-phosphate dehydrogenase (P04406 whole entry): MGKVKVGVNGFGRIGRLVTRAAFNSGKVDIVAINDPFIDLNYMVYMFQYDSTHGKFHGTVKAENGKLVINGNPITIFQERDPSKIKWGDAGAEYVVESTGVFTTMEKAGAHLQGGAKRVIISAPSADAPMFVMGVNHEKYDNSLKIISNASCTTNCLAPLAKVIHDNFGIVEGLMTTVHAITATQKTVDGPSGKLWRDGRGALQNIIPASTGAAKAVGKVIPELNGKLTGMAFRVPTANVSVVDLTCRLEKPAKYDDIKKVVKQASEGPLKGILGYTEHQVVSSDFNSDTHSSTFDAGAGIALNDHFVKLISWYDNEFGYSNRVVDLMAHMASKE

By EC50 is commonly meant the concentration needed to bring the measured effect to its halfway point. A word on the AC50: it is the concentration giving half of the maximal activity seen. On to `Cc1ccnc(SCCn2c(N3CC(C)CC(C)C3)nc3c2c(=O)n(C)c(=O)n3C)n1` (stereo not given), for which the EC50 was 39.1 µM (active) in [1], > 120 µM (not active) in test [2] and > 120 µM (not active) in test [3]. For the same compound, the AC50 with Escherichia coli [4] was 35.1 µM (active).
As usually defined, the IC50 is the concentration that gives 50% inhibition. With `O=[N+]([O-])c1ccc2[nH]c(O)c(N=NC(S)=NCC3CCCO3)c2c1` (stereo not given), the results for the IC50 (on Bcl-2-related protein A1; in [5]; in test [6]) were > 20 µM (inactive), 15.9 µM (active) and 0.664 µM (active), respectively.
As to `O=C1CC(c2cc(-c3ccccc3)no2)C1`, the AC50 in the test on Escherichia coli [7] is 34.5 µM (active).
In the case of `COc1ccc(S(=O)(=O)N2CCCCCC2)cc1NC(=O)c1c2c(nc3ccccc13)CCN(Cc1ccccc1)C2`, the values for the AC50 in the test on Escherichia coli [7] and with Escherichia coli [4] were 26 µM (active) and 52 µM (active), respectively.
For `CC(C)(C)c1cc(NS(=O)(=O)c2ccc3c(c2)OCCO3)on1`, the AC50 with Escherichia coli [4] was 31 µM (active).
Take `Cc1ccc(S(=O)(=O)n2cc(C=O)c3ccccc32)cc1`: the IC50 at Bcl-2-related protein A1 is > 20 µM (inactive); in test [5], 9.59 µM (active); in [6], 11 µM (active).
Turning to `COC(=O)C1=C(C)N(Cc2ccco2)C(=O)/C1=C\c1ccc(N(C)C)cc1`, the values for the half-maximal effective concentration (EC50) in test [8] and in [9] were 10.7 µM (active) and 37.5 µM (inactive), respectively.
`CCc1nnc(NC(=O)CN2CCN(c3nc(-c4ccccc4)cs3)CC2)s1`: the half-maximal effective concentration (EC50) in test [10] was > 150 µM (inconclusive); in test [11], 1.18 µM (active); in [12], > 180 µM (inactive); in test [13], > 150 µM (inactive).
For `CCN=C(S)NNC(=O)c1cc(-c2ccccc2C)nc2ccccc12`, the EC50 is > 160 µM (inactive) in test [10], 0.931 µM (active) in [11], > 180 µM (inactive) in test [12] and > 160 µM (inactive) in [13].
Consider `NC(=O)c1ncn([C@@H]2O[C@H](CNCc3cccn3-c3ccncc3)[C@@H](O)[C@H]2O)n1`, for which the AC50 in the test on Escherichia coli [7] is 24 µM (active).
In the case of `CC1=CC(C)(C)n2c(O)c(/N=N/C(=N)S)c3cccc1c32`, the IC50 is > 20 µM (inactive) at Bcl-2-related protein A1, 6.09 µM (active) in test [5] and 4.79 µM (active) in test [6].
As for `CCN1CCN(C(=O)c2cc(-c3ccc(Cl)cc3Cl)n[nH]2)CC1`, the values for the IC50 in [14] and in test [15] were > 100 µM (not active) and > 100 µM (inactive), respectively.
